The values that follow come from patent publication US9802929B2, “Benzo five-membered nitrogen heterocyclic piperidine or piperazine derivatives and preparation methods and pharmaceutical compositions thereof” (Shenyang Haiwang Biotechnology Co., Ltd., priority 2012, dated 2017).

For assay [1], the system named is In Vitro Vascular Smooth Muscle of Rabbits. Put plainly: Relaxant effect on in vitro rabbit vascular smooth muscle contraction induced by adrenaline (AD). The conditions noted are these: for EC50: Oryctolagus cuniculus; for relaxant effect against AD contraction (in words): rabbit vascular smooth muscle, AD 10^−5 mol/L. The source says: Krebs-Henseleit (K—H) physiological solution: NaCl 6.92 (concentration units), KCl 0.35, MgSO4 0.29, KH2PO4 0.16, CaCl2 0.28, NaHCO3 2.1, glucose 2.0 (g/L), pH 7.2.
Preparation of compound II-1 to II-87 solutions: Weigh a certain quality compound samples and dilute to concentrations (10^−10˜10^−3 mol/L) with distilled water, standby.
(§1) Cut the chest open quickly after stunning, strip out the descending aorta, then after removing the surrounding connective tissue and adipose tissue (if performed serotonin receptor antagonist experiments, endothelial cells should be removed using a smooth stainless steel bars), cut the vessels into 3-5 mm vascular ring, then pass the steel hook through the blood vessel ring, with one end is fixed to the vent hook and the other end connected to the tension transducer, then place the specimens into bath tube containing 20 mL of nutrient solution, and record tension change by tension transducer. Maintain tube temperature at 37±0.5° C., and pass bubbles (95% O2+5% CO2) into the solution as a speed of 1-2 bubbles/minute. Place an initial load of 1.5 g on the rings, and change nutrient every 20 minutes, then balance for 2 hours and start test after baseline readings are stabilized.
After tension readings are stabilized, record a certain length of tension curve, and add spasmogens agent AD (10^−5 mol/L) to induce contraction; if a maximum contract is achieved, wash the specimens thoroughly, and change K—H solution every 20 minutes, and then balance for 60 minutes; after baseline readings are stabilized, induce contract with spasmogens agent again. When the maximum contract in the later induction is consistent with the former induction, add compound II-1 to II-34 solutions (1×10^−10 to 1×10^−3 mol/L), II-35 to II-87 solutions (1×10^−8-1×10^−3 mol/L), and record the curves. Draw a dose-response curve using maximum relaxation response as 100%, relaxation percentage as ordinate and negative logarithms of the each concentration as abscissa.

Assay [2] deals with In-Vitro Vascular Smooth Muscle of Rabbits. Put plainly: Relaxant effect on in vitro rabbit vascular smooth muscle contraction induced by hyperkalemia solution. The conditions noted are these: for EC50: Oryctolagus cuniculus; for relaxant effect against hyperkalemia solution contraction (in words): rabbit vascular smooth muscle.
The next assay relates to Ca^2+ channel. Put plainly: Antagonism of CaCl2 cumulative contraction of rabbit aorta, pA2. The conditions noted are these: CaCl2 cumulative contraction after Ca-free hyperkalemia depolarization.
Source text: Calcium-free K—H solution: Remove CaCl2 from K—H solution, add an equal number of moles of KCl, and add EDTA^−2Na^+ 0.1 mmol/L, while the other components remain unchanged.
Calcium-free hyperkalemia solution: Remove CaCl2 from hyperkalemia solution, add an equal number of moles of KCl, and add EDTA^−2Na^+ 0.1 mmol/L, while the other components remain unchanged.
as §1
After the tension is stabilized, wash the specimen three times and incubate with Ca-free K—H solution for 40 minutes; depolarize with Ca-free hyperkalemia solution for 20 minutes, and then add CaCl2 (10^−6-10^−2 mol/L) to the tube until a maximum response is achieved, and then record the curve. Then wash with K—H solution repeatedly, and replace with fresh K—H solution every 20 minutes; after balancing for 60 minutes and the baseline values are stabilized, wash the specimen again three times, and incubate with Ca-free K—H solution for 40 minutes; depolarize with Ca-free hyperkalemia solution for 20 minutes, and then add compound II-36 (3×10^−6 mol/L) to the tube, and incubate for 20 minutes; then add CaCl2 (10^−6-10^−2 mol/L) until a maximum response is achieved, and then record the curve. Mark CaCl2 contraction as ordinate using maximum response as 100% base. […] PA2 value of compound II-36 is 5.61±0.04 against CaCl2 contraction effect on rabbit aorta.
After the tension is stabilized, wash the specimen three times and incubate with Ca-free K—H solution for 40 minutes; depolarize with Ca-free hyperkalemia solution for 20 minutes, and then add CaCl2 (10^−6-10^−2 mol/L) to the tube until a maximum response is achieved, and then record the curve. […]

[3] abbreviates: relaxation of rabbit aortic rings contracted by AD (10^−5 mol/L).
[4] abbreviates: relaxation of rabbit aortic rings contracted by hyperkalemia solution (K+ 60 mmol/L).

For `FC(F)(F)c1cccc(N2CCN(CCCCn3cnc4ccccc43)CC2)c1` [Compound II-36, 1-(4-(4-(3-trifluoromethylphenyl)piperazin-1-yl)butyl)-1H-benzimidazole], the EC50 – broadly, the concentration needed to bring the measured effect to its halfway point – in assay [1] (setting [3]) was 1.86 µM; in assay [2] (setting [4]), 4.57 µM. Also, the “relaxant effect against AD contraction (in words)” value in assay [1] is “most significant relaxation effects”. Moreover, in assay [2], the “relaxant effect against hyperkalemia solution contraction (in words)” value is recorded as “significant relaxant effect”. Further, the “PA2 value against CaCl2 contraction” value in the assay with Ca^2+ channel is recorded as 5.61±0.04.
In the case of `FC(F)(F)c1cccc(N2CCN(CCCCn3nnc4ccccc43)CC2)c1` [Compound II-65, 1-(4-(4-(3-trifluoromethylphenyl)piperazin-1-yl)butyl)-1H-benzotriazole], in assay [1], the “relaxant effect against AD contraction (in words)” value was “most significant relaxation effects”. The “−logEC50” value in assay [1] (setting [3]) is listed as 6.19 ± 0.03; in assay [2] (setting [4]), 5.55 ± 0.03. Further, in assay [2], the “relaxant effect against hyperkalemia solution contraction (in words)” value is reported as “relatively significant relaxant effect”. Further, the “PA2 value against CaCl2 contraction” value in the assay with Ca^2+ channel was found to be 6.56±0.032.
Take `c1ccc2c(c1)nnn2CCCCN1CCN(c2nsc3ccccc23)CC1` [Compound II-68, 3-(4-(4-(1H-benzotriazol-1-yl)butyl)piperazin-1-yl)benzisothiazole]: the 50% effective concentration (EC50) in assay [1] (setting [3]) was 0.00851 µM; in assay [2] (setting [4]) it was 17 µM. Also, the “relaxant effect against AD contraction (in words)” value in assay [1] is “most significant relaxation effects”. The “PA2 value against CaCl2 contraction” value in the assay on Ca^2+ channel was determined as 5.36±0.26.
